What was measured:
IGF1R mRNA = assay: Oligonucleotide scanning array hybridisation with labelled transcript; assay type: binding, human; conditions: for Rel hyb intensity: relative to the most strongly hybridising sequence on the array; for Hyb intensity: scanning array probed with labelled IGF1R mRNA; for Hybridisation to IGF1R mRNA on scanning array: 37° C. (and 23° C.)
Experimental: Scanning arrays complementary to the region of the IGF1R mRNA from position 537-685 were prepared using the standard techniques described in Southern E. M. et al., Nucleic Acids Res., 1994, 22(8): 1368-1373; and Sohail, M. and Southern, E. M. “Using oligonucleotide scanning arrays to find effective antisense reagents”, Methods in Molecular Biology, vol. 170: DNA Arrays: Methods and Protocols, Ed J. B. Rampal, Humana Press Inc., Totowa, N.J.
The scanning arrays comprise sets of oligonucleotides of various lengths. A series of oligonucleotides, complementary to the target mRNA, is made by sequential coupling of nucleotides to a solid surface. The DNA synthesis reagents are applied to a confined area on the surface of the solid support using a mask. The mask is shifted along the surface after each round of coupling, resulting in a series of oligonucleotides each complementary to a region of the target sequence.
• 2. Remove 1 μL for quantitation (see below). • 3. Remove unincorporated label by Sephadex® G25 column chromatography (see Note 11). • 4. Save 1 μL of the purified transcript for quantitation (see below). • 5. Check the integrity of the transcript by denaturing polyacrylamide gel electrophoresis (10). • 6. Add 10 μL of the scintillation fluid to the samples saved in Steps 2 and 4. • 7. Mix by vortexing and count the samples in a scintillation counter for 1 min. • 8. Calculate the percent incorporation: [formula] • 9. Calculate the amount of RNA made: [formula] Hybridisation to Arrays Made on Polypropylene • 1. Place the array in the hybridisation tube, coiling it in a spiral. • 2. Dilute the radiolabelled transcript in an appropriate volume (10-20 mL depending upon the size of the array and the hybridisation tube) of hybridisation buffer. The mix should cover the array along the length of the tube. • 3. Place items 1 and 2 in the oven at desired temperature for 30 min. Also put approximately 100 mL of the hybridisation buffer in the oven: this is to be used to wash the array at the end of hybridisation. • 4. Pour the hybridisation mix into the tube containing the array and hybridise for 3-4 h. • 5. Remove the hybridisation mix. Briefly wash the array with the hybridisation buffer from Step 3, air dry, cover with cling film and expose to a storage phosphor screen for 16-20 h (see Note 12). • 6. Scan the screen on PhosphorImager or STORM and analyse the image using xvseq (see below). Hybridisation to Arrays Made on Glass • 1. Clean the non-array glass plate with acetone and ethanol to ensure it is grease-free and siliconise it by treatment with dimethyl dichlorosilane solution and place it in lidded box. Also place moist paper towel in the box. • 2. Dilute the radiolabelled transcript in an appropriate volume of the hybridisation buffer (for example, for an array of 250 mm×50 mm use 500-750 μL). • 3. Place items 1 and 2 in an incubator at desired temprature for 30 min. Also put approximately 100 mL of the hybridisation buffer in the oven: this is to be used to wash the array at the end of hybridisation. • 4. Using a micropipette, pipette the hybridisation mix in a line evenly along the length of the non-array glass plate, avoiding formation of air bubbles. • 5. Starting at one end, carefully place the scanning array (face down) on top of the hybridisation mix. The mix will spread out and form a thin film between the two plates. Incubate for 3-4 h. • 6. Separate the plates from each other and wash the array plate with hybridisation buffer to remove unbound mix. Drain the plate, air dry, cover with cling film and expose to a storage phosphor screen for 16-20 h. • 7. Scan the screen on PhosphorImager or STORM and analyse the image using xvseq (see below). Alternative Hybridisation Protocol for Glass or Polypropylene • 1. Assemble with clips the array plate (or polypropylene array pasted with PhotoMount™ on a glass plate) and the non-array plate, using rubber tubing as spacers on two sides. • 2. […]

IGF1R = IGF1R level by immunoblotting in transfected MDA-231 cells; assay type: cell-based, human; conditions: for IGF1R Protein Level (% control): MDA-231 cells, 48 hr, vs scrambled control
Experimental: (§1) The human and murine cell lines used in this study were cultured in RPMI 1640 plus 10% FCS at 37° C. in a humidified atmosphere of 5% CO2. The cultures were negative when tested for Mycoplasma infection. Cultures were passaged the day before transfection to achieve 30-50% confluence the following day. Initial transfections of ASOs used 1-2.5 μg/ml Cytofectin (Glen Research, Sterling, Va.), according to the manufacturer's instructions. Latterly Oligofectamine (Life Sciences) has been used for all ASO and RNAi transfections. The method was as described (see manufacturer's instructions and www.dharmacon.com) with minor modifications. For transfection of monolayers seeded in 6 well plates, 5 μl phosphorothioate oligonucleotide or RNA duplex at 100× final concentration were mixed with 2501 serum-free Optimem (Gibco-BRL). In a separate tube 2 μl Oligofectamine was mixed with 68 μl Optimem. After 10 min incubation at room temperature the contents of the two tubes were mixed and incubated for a further 25 min at room temperature. Monolayers were washed with 1-2 ml Optimem. To the cells were added 175 μl Optimem followed by the 325 μl complexes. Volumes were scaled up by factors of 2.22 or 6.05 for transfection in 60 mm or 100 mm dishes respectively. Cultures were incubated at 37° C. for 4 hr, and then 50 μl FCS and 3.5 ml RPMI plus 5% FCS were added to each well. After 48 hr incubation effects on IGF1R and IR expression were determined by immunoblotting. Some transfected cultures were serum-starved overnight, divided into two aliquots and treated with 10 nM Long R3-IGF-I (GroPep, Adelaide) or diluent for 30 min at 37° C. prior to lysis.
(§2) IGF1R expression was assessed by immunoblotting as previously described (Macaulay et al 2001). After washing in ice-cold PBS, cells were lysed in 50 mM Hepes pH 7.5, 100 mM NaCl, 10 mM EDTA, 1% Triton-X-100, 4 mM sodium pyrophosphate, 2 mM sodium orthovanadate, 10 mM sodium fluoride, 1 mM PMSF, 2 μg/ml each leupeptin and aprotinin. Lysates were centrifuged for 15 minutes at 14,000 g, the protein concentration of supernatants was measured using BCA assay reagent (Pierce), and equivalent amounts of protein were separated on 7.5% SDS-PAGE gels and transferred to nitrocellulose. Target protein levels were assessed using antibodies to the β-subunit of the IGF1R or IR (Santa Cruz), phospho-Ser 473 Akt or total Akt (Cell Signalling, New England Biolabs) or β-tubulin (Sigma). Activated IGF1R was detected by immunoprecipitation for phosphotyrosine (P-Tyr-100, Cell Signaling Technology). Primary antibodies were detected with HRP-conjugated secondary antibodies (Dako), and ECL Plus (Amersham Pharmacia).
(§3) The ASOs and RNAi duplexes were transfected into MDA-231 cells (human ER negative breast cancer) using Cytofectin or Oligofectamine, as described above. After 48 hr the cells were lysed, and IGF1R and IR levels were measured by immunoblotting. The intensity of the autoradiographic bands was quantified by densitometry, and IGF1R (or IR) levels were corrected for loading differences. The specific IGF1R or IR results are presented as % IGF1R (or IR) level of that in cells transfected with the same concentration of an appropriate control. This was a scrambled control oligonucleotide for ASOs, and an inverted RNA duplex for RNAi.

IR = IR level by immunoblotting in transfected MDA-231 cells; assay type: cell-based, human; conditions: for IR Protein Level (% control): 48 hr, vs scrambled control; for IR downregulation: TSS ASO at 300 nM; for Selectivity for IGF1R mRNA versus IR mRNA: compared with TSS ASO
Experimental: as §1, §2, §3

MDA-MB-231 cells = assay: Clonogenic survival and post-irradiation survival (SF2) of transfected MDA-MB-231 cells; assay type: cell-based, human; conditions: MDA-MB-231, 100 nM
Experimental: FIG. 7 A) MDA-MB-231 cells transfected with 100 nM RNA duplexes were serum-starved overnight and treated with 50 nM IGF-I for 30 min. […] Results represent mean±sem of colony counts in triplicate dishes. Similar results were obtained in two further clonogenic assays. • C) Clonogenic survival of transfected MDA-MB-231 cells that were unirradiated or irradiated at 2Gy. The fraction surviving 2Gy irradiation (SF2) is shown as mean±sem of three independent assays.
The effect of transfection with 100 nM ASO4 or siRNA duplexes R4 and R5, equivalent to strongly and weakly hybridizing ASOs respectively, on colony forming efficiency and post-irradiation survival was also evaluated. […] This in turn illustrates the utility of hybridisation to the scanning ASO array in the selection of siRNA reagents, since relative hybridisation to the array is found to be predictive of activity in RNA interference and biological efficacy.

Substance: 15mer: 15mer sequence described by Wraight et al. which falls within the region 537-685, gtgcagcagcggtag (DNA GTGCAGCAGCGGTAG; further chemistry not given here) [reference compound]
- Rel hyb intensity (IGF1R mRNA): 0.03
- Hyb intensity (IGF1R mRNA): 1695

Substance: ASO1 (20mer): phosphorothioate antisense oligonucleotide CGGCTTCTCCTCCATGGTCC, SEQ ID NO:2 (DNA, all phosphorothioate, methylation of C not given here)
- Hybridisation to IGF1R mRNA on scanning array (IGF1R mRNA): hybridised strongly
- IGF1R Protein Level (% control) (IGF1R; 30 nM ASO): 66 ± 23 % control
- IGF1R Protein Level (% control) (IGF1R; 300 nM ASO): 38 ± 6 % control
- IR Protein Level (% control) (IR; 30 nM ASO): 112 % control
- IR Protein Level (% control) (IR; 300 nM ASO): 135 % control
- IR downregulation (IR): did not cause significant downregulation of IR
- Selectivity for IGF1R mRNA versus IR mRNA (IR): greater selectivity for IGF1R mRNA versus IR mRNA

Substance: ASO2 (20mer): phosphorothioate antisense oligonucleotide TGGTCTTCTCACACATCGGC, SEQ ID NO:7 (DNA, all phosphorothioate, methylation of C not given here)
- Hybridisation to IGF1R mRNA on scanning array (IGF1R mRNA): hybridised strongly
- IGF1R Protein Level (% control) (IGF1R; 30 nM ASO): 84 ± 11 % control
- IGF1R Protein Level (% control) (IGF1R; 300 nM ASO): 47 ± 5 % control

Substance: ASO3: phosphorothioate antisense oligonucleotide ATTGTTGATGGTGGTCTTCT, SEQ ID NO:11 (DNA, all phosphorothioate, methylation of C not given here)
- Hybridisation to IGF1R mRNA on scanning array (IGF1R mRNA): hybridises only at 23 °C
- Rel hyb intensity (IGF1R mRNA): >0.13
- Hyb intensity (IGF1R mRNA): >7048
- IGF1R Protein Level (% control) (IGF1R; 30 nM ASO): 105 ± 18 % control
- IGF1R Protein Level (% control) (IGF1R; 300 nM ASO): 104 ± 22 % control

Substance: ASO4: phosphorothioate antisense oligonucleotide GCGGTAGTTGTACTCATTGT, SEQ ID NO:13 (DNA, all phosphorothioate, methylation of C not given here)
- Hybridisation to IGF1R mRNA on scanning array (IGF1R mRNA): hybridised strongly
- Rel hyb intensity (IGF1R mRNA): >0.59
- Hyb intensity (IGF1R mRNA): >33,162
- IGF1R Protein Level (% control) (IGF1R; 30 nM ASO): 73 ± 2 % control
- IGF1R Protein Level (% control) (IGF1R; 300 nM ASO): 49 ± 2 % control
- IR Protein Level (% control) (IR; 30 nM ASO): 97 % control
- IR Protein Level (% control) (IR; 300 nM ASO): 92 % control
- IR downregulation (IR): did not cause significant downregulation of IR
- Selectivity for IGF1R mRNA versus IR mRNA (IR): greater selectivity for IGF1R mRNA versus IR mRNA
- Survival after 2Gy irradiation (SF2) (MDA-MB-231 cells; 2Gy): entirely non-specific
- Clonogenic survival (MDA-MB-231 cells; unirradiated): entirely non-specific

Substance: ASO5: phosphorothioate antisense oligonucleotide GTGGTCCAGCAGCGGTAGTT, SEQ ID NO:15 (DNA, all phosphorothioate, methylation of C not given here)
- Hybridisation to IGF1R mRNA on scanning array (IGF1R mRNA): hybridised strongly
- Rel hyb intensity (IGF1R mRNA): >0.07
- Hyb intensity (IGF1R mRNA): >4150

Substance: Mut2: R2 duplex with single base pair mutation GCCGAUGUGUGUGAAGACCTT / TTCGGCUACACACACUUCUGG, SEQ ID NO:28 (sense GCCGAUGUGUGUGAAGACCNN; chemistry not fully specified; one strand is listed 3' to 5')
- IGF1R downregulation compared between 21mer duplexes (IGF1R; MDA-231 cells, 0.5, 5 and 50 nm (FIG. 5)): partially, though not completely, blocked

Reference: patent publication US20050255493A1, “Molecular targeting of the IGF-1 receptor” (priority 2002, published 2005)
